Reference: patent publication US11306064B2, “Benzothia(di)azepine compounds and their use as bile acid modulators” (Albireo AB, priority 2018, dated 2022)

Assays:
Format in all cases: cell-based
Human LBAT = target: T1, Human LBAT (Homo sapiens, UniProt Q14973); assay: LBAT (h/m) assay: 3H-taurocholic acid uptake in human LBAT-overexpressing cells; settings: 0.3 μM 3H-taurocholic acid and 7.5 μM cold taurocholic acid, 20 minutes, read-out: hLBAT IC50
T1 construct: expressed in transfected cells; kept under Geneticin selection
T1 sequence (Q14973 1-349): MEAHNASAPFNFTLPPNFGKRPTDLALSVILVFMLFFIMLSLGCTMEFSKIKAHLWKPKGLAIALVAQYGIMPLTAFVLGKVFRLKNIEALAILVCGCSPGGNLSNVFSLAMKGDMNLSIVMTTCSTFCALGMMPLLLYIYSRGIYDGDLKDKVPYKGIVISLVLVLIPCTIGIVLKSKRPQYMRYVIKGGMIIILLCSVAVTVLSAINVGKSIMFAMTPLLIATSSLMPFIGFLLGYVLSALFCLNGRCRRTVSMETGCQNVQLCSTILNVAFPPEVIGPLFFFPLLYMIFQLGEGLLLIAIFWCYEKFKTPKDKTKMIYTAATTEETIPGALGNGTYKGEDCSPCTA
Protocol: LBAT (h/m) Assay Protocol
20,000 cells (Human or Mouse LBAT-overexpressing cells) were seeded in 96-wells plate (Corning CLS3809) in 100 μL MEM-alpha medium (Gibco 12571-063) supplemented with 10% FBS (Gibco 10438026) containing Geneticin (Gibco 10131-027) (1 mg/mL) and incubated at 37° C. in 5% CO2 for 24 hours. After incubation, media was decanted from the wells and cells were washed two times with 300 μL of basal MEM-alpha medium (FBS-free). After decanting basal MEM-alpha medium each time, plates were tapped against paper towel to ensure maximum removal of residual media. For human LBAT, incubation mix was prepared by adding test inhibitor dilutions (3-fold serial dilution in DMSO (Sigma D2650), 10 points) in MEM-alpha (without FBS) containing 0.3 μM 3H-taurocholic acid (ARC ART-1368) and 7.5 μM cold taurocholic acid (Sigma T4009) (maintaining 0.2% final DMSO concentration). For mouse LBAT, incubation mix was prepared by adding test inhibitor dilutions (3-fold serial dilution in DMSO, 10 points) in MEM-alpha (without FBS) containing 0.3 μM 3H-taurocholic acid and 25 μM cold taurocholic acid maintaining 0.2% final DMSO concentration).
50 μL of incubation mix containing test inhibitors was then added to the wells (in duplicate) and the plates were incubated for 20 minutes in a CO2 incubator at 37° C. After incubation, the reaction was stopped by keeping the plates on ice water mix for 2-3 minutes and then the incubation mix was aspirated completely from the wells. The wells were washed two times with 250 μL of chilled unlabelled 1 mM taurocholic acid dissolved in HEPES (Gibco 15630080)-buffered (10 mM) HBSS (Gibco 14175079) (pH 7.4). The plates were tapped against a paper towel after every wash to ensure maximum removal of blocking buffer.
(§1) 100 μL of MicroScint-20 (PerkinElmer 6013621) was added to the wells and kept overnight at room temperature before reading the plates in TopCount NXT™ Microplate Scintillation and Luminescence Counter from PerkinElmer under 3H Test protocol (set at 120 seconds reading time per well, with normal plate orientation).
(§2) Preparation of Test Compound Dilutions
(§3) All test compounds were provided in powder form at room temperature. 10 mM DMSO stocks of the test compounds were prepared, aliquoted and stored at −20° C. From the 10 mM DMSO stock of the compounds, a 3-fold serial dilution in DMSO was prepared to get a total of 10 dilutions of the test compounds. 0.5 μL of this dilution in DMSO was added to 250 μL of FBS-free basal media containing 3H-taurocholic acid and cold taurocholic acid to prepare the incubation mixture.

HepaRG cells = assay: HepaRG-based assay: 3H-taurocholic acid uptake in differentiated HepaRG cells; settings: Homo sapiens, HepaRG, 0.3 μM 3H-taurocholic acid and 7.5 μM cold taurocholic acid, 30 minutes
Protocol: HepaRG-Based Assay Protocol
A cryopreserved vial of differentiated HepaRG cells (Biopredic International HPR116080) was thawed in HepaRG Thawing/Plating/General Purpose Medium (Biopredic International ADD670C) supplemented with 200 mM Glutamax (Gibco 35050061) following the protocol provided by Biopredic International. 70,000 cells per well were seeded in 96-wells plate (Corning CLS3809) in 100 μL of HepaRG Thawing/Plating/General Purpose Medium supplemented with 200 mM Glutamax and incubated at 37° C. in 5% CO2 for 24 hours. Post incubation, the seeding media was replaced by HepaRG Maintenance/Metabolism Medium (Biopredic International ADD620C) and incubated for 6 days, with fresh HepaRG Maintenance/Metabolism Medium replenishment every 48 hours. After 7 days incubation post seeding, incubation media was decanted from the wells and cells were washed two times with 250 μL of William's E Basal Media (Gibco 12551032). After decanting William's E Basal Media each time, plates were tapped against paper towel to ensure maximum removal of residual media.
Incubation mix was prepared by adding test inhibitor dilutions (3-fold serial dilution in DMSO (Sigma D2650)) in William's E media (basal) containing 0.3 μM 3H-taurocholic acid (ARC ART-1368) and 7.5 μM cold taurocholic acid (Sigma T4009) (maintaining 0.2% final DMSO concentration). 50 μl of incubation mix containing test inhibitors was then added to the wells (in duplicate) and the plates were incubated for 30 minutes in 5% CO2 incubator at 37° C. After incubation, the reaction was stopped by keeping the plates on ice water mix for 2-3 minutes and then the incubation mix was aspirated completely from the wells. The wells were washed two times with 250 μL of chilled unlabelled 1 mM taurocholic acid dissolved in HEPES (Gibco 15630080)-buffered (10 mM) HBSS (Gibco 14175079) (pH 7.4). The plates were tapped against a paper towel after every wash to ensure maximum removal of blocking buffer.
as §1, §2, §3

Human ASBT = target: T2, Human ASBT (Homo sapiens, UniProt Q12908); assay: ASBT (h/m) assay: 3H-taurocholic acid uptake in human ASBT-overexpressing cells; settings: 0.25 μM 3H-taurocholic acid and 5 μM cold taurocholic acid, 20 minutes, read-out: hASBT IC50
T2 construct: expressed in transfected cells; kept under Puromycin selection
T2 sequence (Q12908 1-348): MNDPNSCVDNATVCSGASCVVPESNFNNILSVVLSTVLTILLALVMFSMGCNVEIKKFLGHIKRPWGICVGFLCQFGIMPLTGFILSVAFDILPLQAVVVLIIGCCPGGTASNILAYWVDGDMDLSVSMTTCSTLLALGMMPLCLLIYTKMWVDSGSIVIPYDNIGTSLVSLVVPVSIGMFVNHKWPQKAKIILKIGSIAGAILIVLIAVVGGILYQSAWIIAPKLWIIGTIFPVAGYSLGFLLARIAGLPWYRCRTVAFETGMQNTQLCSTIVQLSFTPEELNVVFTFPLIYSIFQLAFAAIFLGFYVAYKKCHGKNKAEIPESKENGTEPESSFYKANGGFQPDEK
Protocol: ASBT (h/m) Assay Protocol
10,000 cells (Human or Mouse ASBT-overexpressing cells) were seeded in 96-wells plate (Corning CLS3809) in 200 μL MEM-alpha medium (Gibco 12571-063) supplemented with 10% FBS (Gibco 10438026) containing Puromycin (Gibco A1113803) (10 μg/mL) and incubated at 37° C. in 5% CO2 for 48 hours. After incubation, media was decanted from the wells and cells were washed two times with 300 μL of basal MEM-alpha medium (FBS-free). After decanting basal MEM-alpha medium each time, plates were tapped against paper towel to ensure maximum removal of residual media. Test inhibitor dilutions (highest test concentration being 10 μM, 3-fold serial dilution, 10 points) prepared in DMSO (Sigma D2650) were added in incubation mix (maintaining 0.2% final DMSO concentration) containing 0.25 μM 3H-taurocholic acid (ARC ART-1368) and 5 μM of cold taurocholic acid (Sigma T4009). 50 μL of incubation mix containing test inhibitors was then added to the wells (in duplicate) and the plates were incubated for 20 minutes in a CO2 incubator at 37° C. After incubation, the reaction was stopped by keeping the plates on ice water mix for 2-3 minutes and then the incubation mix was aspirated completely from the wells. The wells were washed two times with 250 μL of chilled unlabelled 1 mM taurocholic acid dissolved in HEPES (Gibco 15630080)-buffered (10 mM) HBSS (Gibco 14175079) (pH 7.4). The plates were tapped against a paper towel after every wash to ensure maximum removal of blocking buffer.
100 μL of MicroScint-20 (PerkinElmer 6013621) was added to the wells and kept overnight at room temperature before reading the plates in TopCount NXT™ Microplate Scintillation and Luminescence Counter from PerkinElmer under 3H Test protocol (set at 120 seconds reading time per well).
as §2, §3

Row | SMILES | IC50 (Human LBAT) [nM] | IC50 (HepaRG cells) [nM] | IC50 (Human ASBT) [nM]
1 | CCCC[C@]1(CC)CN(c2ccccc2)c2cc(SC)c(O/C=C/C(=O)O)cc2S(=O)(=O)N1C (single isomer, unassigned) [Example 90] | 49 | 1400 | –
2 | CCCCC1(CCCC)CN(c2ccc(NCc3ccccc3)cc2)c2cc(SC)c(O/C=C/C(=O)O)cc2S(=O)(=O)C1 [Example 22, (E)-3-((5-(4-(benzylamino)phenyl)-3,3-dibutyl-7-(methylthio)-1,1-dioxido-2,3,4,5-tetrahydro-1,5-benzothiazepin-8-yl)oxy)acrylic Acid] | 343 | 2140 | –
3 | CCCCC1(CC)CN(c2ccc(NC(=O)OC(C)(C)C)cc2)c2cc(Br)c(O/C=C/C(=O)O)cc2S(=O)(=O)C1 (stereo not drawn) [Example 23, (E)-3-((7-bromo-5-(4-((tert-butoxycarbonyl)amino)phenyl)-3-butyl-3-ethyl-1,1-dioxido-2,3,4,5-tetrahydro-1,5-benzothiazepin-8-yl)oxy)acrylic Acid] | 100 | 1200 | –
4 | CCCCOC(=O)Nc1ccc(N2CC(CCCC)(CCCC)CS(=O)(=O)c3cc(O/C=C/C(=O)O)c(SC)cc32)cc1 [Example 29, (E)-3-((5-(4-((butoxycarbonyl)amino)phenyl)-3,3-dibutyl-7-(methylthio)-1,1-dioxido-2,3,4,5-tetrahydro-1,5-benzothiazepin-8-yl)oxy)acrylic Acid] | 205 | 666 | –
5 | CCCCC1(CCCC)CN(c2ccccc2)c2cc(Br)c(O/C=C/C(=O)O)cc2S(=O)(=O)N1 [Example 75, (E)-3-((7-bromo-3,3-dibutyl-1,1-dioxido-5-phenyl-2,3,4,5-tetrahydro-1,2,5-benzothiadiazepin-8-yl)oxy)acrylic Acid] | 349 | – | 148
6 | CCCCC1(CC)CN(c2ccccc2)c2cc(N(C)C)c(O/C=C/C(=O)O)cc2S(=O)(=O)C1 (stereo not drawn) [Example 80, (E)-3-((3-butyl-7-(dimethylamino)-3-ethyl-1,1-dioxido-5-phenyl-2,3,4,5-tetrahydro-1,5-benzothiazepin-8-yl)oxy)acrylic Acid] | 828 | – | 7.5
7 | CCCCC1(CCCC)CN(c2ccccc2)c2cc(F)c(O/C=C/C(=O)O)cc2S(=O)(=O)C1 [Example 81, (E)-3-((3,3-dibutyl-7-fluoro-1,1-dioxido-5-phenyl-2,3,4,5-tetrahydro-1,5-benzothiazepin-8-yl)oxy)acrylic Acid] | 210 | – | 771
8 | CCCCC1(CCCC)CN(c2ccccc2)c2cc(C#N)c(O/C=C/C(=O)O)cc2S(=O)(=O)C1 [Example 82, (E)-3-((3,3-dibutyl-7-cyano-1,1-dioxido-5-phenyl-2,3,4,5-tetrahydro-1,5-benzothiazepin-8-yl)oxy)acrylic Acid] | 270 | – | 873
9 | CCCCC1(CCCC)CN(c2ccccc2)c2cc(SC)c(O/C(C)=C/C(=O)O)cc2S(=O)(=O)N1 [Example 83, (E)-3-((3,3-dibutyl-7-(methylthio)-1,1-dioxido-5-phenyl-2,3,4,5-tetrahydro-1,2,5-benzothiadiazepin-8-yl)oxy)but-2-enoic Acid] | 4920 | – | 18
10 | CCCCC1(CCCC)CN(c2ccc(Br)cc2)c2cc(SC)c(O/C=C(\F)C(=O)O)cc2S(=O)(=O)C1 [Example 94, (Z)-3-((5-(4-bromophenyl)-3,3-dibutyl-7-(methylthio)-1,1-dioxido-2,3,4,5-tetrahydro-1,5-benzothiazepin-8-yl)oxy)-2-fluoroacrylic Acid] | 96 | – | 42
11 | CCCCC1(CCCC)CN(c2ccccc2)c2cc(N(C)C)c(O/C=C(\F)C(=O)O)cc2S(=O)(=O)N1 [Example 97, (Z)-3-((3,3-dibutyl-7-(dimethylamino)-1,1-dioxido-5-phenyl-2,3,4,5-tetrahydro-1,2,5-benzothiadiazepin-8-yl)oxy)-2-fluoroacrylic Acid] | 341 | – | 9
12 | CCCCC1(CCCC)CN(c2ccc(C(=O)N(C)C)cc2)c2cc(SC)c(O/C=C(\F)C(=O)O)cc2S(=O)(=O)C1 [Example 104, (Z)-3-((3,3-dibutyl-5-(4-(dimethylcarbamoyl)phenyl)-7-(methylthio)-1,1-dioxido-2,3,4,5-tetrahydro-1,5-benzothiazepin-8-yl)oxy)-2-fluoroacrylic Acid] | 290 | – | 3330
